From patent US20230310540A1, “PEPTIDE COMPOSITIONS AND METHODS OF USE THEREOF” (priority 2020, published 2023) come the findings set out here.

The test system of series [1] is Acinetobacter baumannii (PDR). In words: Broth dilution MIC against pan drug-resistant A. baumannii isolate. Format: cell-based. The settings on record: isolate AB (PDR).
Series [2] deals with Methicillin-resistant Staphylococcus aureus (SAP400). In words: Broth dilution MIC against MRSA isolate. Type of series: cell-based. (Broth dilution looks for growth in wells or tubes with falling amounts of substance.)
In series [3] the test system is Klebsiella pneumoniae clinical isolates.
In series [4] the test system is Pseudomonas aeruginosa (CF mucoid and non-mucoid). In words: Broth dilution MIC against P. aeruginosa isolates from cystic fibrosis patients. Format: cell-based.
For series [5], the system named is WI-38 human fibroblast cells. In words: SYTOX Green cytotoxicity assay. Format: cell-based. As for the experimental part:
Peptide variants of D-CONGA (SEQ ID NO: 1) were tested for activity against E. coli, K. pneumoniae, and S. aureus. Minimum Inhibitory Concentrations (MIC) were measured in 96-well plates by broth dilution. […] Following 1 hr. incubation, bacteria in growth media were added and the plates were incubated overnight at 37° C. Sterilized, wells were identified to determine MIC. […] The value for 100% hemolysis was established by treatment with the detergent Triton-X100. Toxicity was measured by incubating serially diluted peptide with WI38 human fibroblast cells in the presence of SYTOX Green, a DNA binding dye that reports on cell death by membrane permeabilization. The peptide concentration that gives 50% cytotoxicity by relative SYTOX Green fluorescence, is denoted EC50. WI-38 cells were grown to confluency in T-75 flasks in complete DMEM (with 15% FBS, plus antibiotics and non-essential amino acids). The day prior to cytotoxicity experiments, cells were trypsinized, removed from the flask, and pelleted. Cells were resuspended in complete DMEM and the cell count was obtained using a cell counter. The cells were then seeded at a density of 10,000 cells/well in a 96-well tissue-culture plate. […] To perform the cytotoxicity assay, media from wells of overnight cell culture plate was removed, washed once with PBS and treated with 50 μl of the peptide and SYTOX™ Green mixture. The plate was read for fluorescence, every 5 minutes, for an hour at the excitation wavelength of 385 nm and emission wavelength of 530 nm. MelP5, a potent MPP, that causes 100% SYTOX™ Green entry into the cells was used as a positive control to normalize the cytotoxicity of peptides tested. MIC values were reported in μM peptide against gram-negative E. coli (EC), P. aeruginosa (PA), and gram-positive S. aureus (SA). […] The column marked “EC 50” contains the concentration of peptide that kills 50% of WI-38 human fibroblast cells assayed by entry of SYTOX™ Green DNA binding dye.

The next series has as its system E. coli. Type of series: cell-based. As for the experimental part:
(§1) Peptide variants of D-CONGA (SEQ ID NO: 1) were tested for activity against E. coli, K. pneumoniae, and S. aureus. Minimum Inhibitory Concentrations (MIC) were measured in 96-well plates by broth dilution. Peptides were serially diluted in buffer or in buffer containing 1×10^9 human RBC/ml. Following 1 hr. incubation, bacteria in growth media were added and the plates were incubated overnight at 37° C. Sterilized, wells were identified to determine MIC. Hemolysis was measured by incubating 1×10^8 human RBCs with serially diluted peptide for 30 minutes followed by centrifugation of the cells and measurements of the released hemoglobin in the supernatant by absorbance at 410 nm. The value for 100% hemolysis was established by treatment with the detergent Triton-X100. Toxicity was measured by incubating serially diluted peptide with WI38 human fibroblast cells in the presence of SYTOX Green, a DNA binding dye that reports on cell death by membrane permeabilization. The peptide concentration that gives 50% cytotoxicity by relative SYTOX Green fluorescence, is denoted EC50.
(§2) Antimicrobial peptides and conventional antibiotics were prepared at 5-times the final concentration needed in 0.025% acetic acid. The antibiotics were serially diluted by a factor of 2:3 horizontally across 96-well plates from Corning, 25 μL per well. One column was reserved for controls. For the assays performed in the presence of RBC, type O+ human RBCs at 0 or 2.5×10^9 cells/mL were added in 50 μL aliquots to all wells. Following a 30-minute incubation, 50 μL of TSB, inoculated with 5×10^5 CFU/mL, was added to all wells, and plates were incubated overnight at 37° C. Following overnight incubation at 37° C., the OD600 was measured (values of less than 0.1 were considered sterilized). To assess bacterial growth in the assays with RBC, the OD600 was measured after a second day inoculation with 10 μL of solution from the original plate added to 100 μL of sterile TSB followed by overnight incubation.
(§3) MIC values were reported in μM peptide against gram-negative E. coli (EC), P. aeruginosa (PA), and gram-positive S. aureus (SA). The two columns under each organism are for assays performed in the absence (−) and presence (+) of 1×10^9 human RBC/ml. “>30” means that sterilization was not observed at 30 μM, the highest concentration tested. The column marked “hemolysis” is the fractional hemolysis of 1×10^8 human RBC/ml at 100 μM peptide determined from measurements of serially diluted peptide, starting from 100 μM. The column marked “EC 50” contains the concentration of peptide that kills 50% of WI-38 human fibroblast cells assayed by entry of SYTOX™ Green DNA binding dye.

The subject of the next series is S. aureus. Format: cell-based. As for the experimental part: as §1, §2, §3
Another series deals with K. pneumoniae. Type of series: cell-based. The note with it: with 10^9 human RBC/ml; Table 2. As to the method:
as §1, §2, §3

The subject of another series is human RBCs. In words: Hemolysis of human RBCs. Type of series: cell-based. As for the experimental part:
as §1
Peptide was serially diluted in PBS starting at a concentration of 100 μM. The final volume of peptide in each well was 50 μL. To each well, 50 μL of RBCs in PBS at 2×10^8 cells/mL was added. As a positive lysis control, 1% triton was used. The mixtures were incubated at 37° C. for 1 hour, after which they were centrifuged at 1000 g for 5 minutes. After centrifugation, 10 μL of supernatant was transferred to 90 μL of DI H2O in a fresh 96-well plate. The absorbance of released hemoglobin at 410 nm was recorded and the fractional hemolysis was calculated based on the 100% and 0% lysis controls.
as §3

[6] abbreviates: isolate KP (Morici), ATCC #33495.
The mark [7] stands for this setting: presence of 1×10^9 human RBC/ml, Table 3.
Where [8] appears, read: with 10^9 human RBC/ml, Table 2.

≈ marks a conversion by molar mass, not a printed value. Where two headings read alike, the source gives them in different places. Square brackets hold non-standard residues; d marks the D form. Peptide text beside a SMILES is read from it. Bounds are passed on as bounds.

The MIC is the lowest concentration found to suppress growth. Lower therefore signals a more susceptible organism. In general, EC50 refers to the concentration needed to bring the measured effect to its halfway point.

Take Gentamicin: the MIC in series [1] is greater than 150 µM; in series [2], greater than 150 µM; in series [3] (isolate KP 2146 (NDM-1)), greater than 150 µM; in series [3] (isolate KP (6)), greater than 150 µM; in [3] (isolate KP (46)) it was 1.6 µM; in series [3] (isolate KP (398)), 1.9 µM. Further, the minimum inhibitory concentration (MIC) in [3] (isolate KP (CRE)) was 5.2 µM; in series [3] (setting [6]), 1.9 µM; in series [3] (isolate KP (ST258C3)), greater than 150 µM; in series [3] (isolate KP (ST258I2)), 8.3 µM; in [3] (isolate KP (ST396)), 2 µM; in series [3] (isolate KP (St258 C2)), greater than 150 µM. Also, the results for the MIC in series [4] (isolate PA (mucoid)) and in series [4] (isolate PA (non-mucoid)) were 5.5 µM and 8.3 µM, respectively.

For the molecule `CC(C)(O/N=C(\C(=O)N[C@@H]1C(=O)N2C(C(=O)[O-])=C(C[n+]3ccccc3)CS[C@H]12)c1csc(N)n1)C(=O)O` [CAZ, Ceftazidime], the minimal inhibitory concentration (MIC) in series [1] was greater than 150 µM; in series [2] it was greater than 150 µM; in series [3] (isolate KP 2146 (NDM-1)), greater than 150 µM; in series [3] (isolate KP (6)), greater than 150 µM; in series [3] (isolate KP (46)) it was greater than 150 µM; in series [3] (isolate KP (398)), 132.7 µM (≈ 72.5 µg/mL). The MIC in series [3] (isolate KP (CRE)), in series [3] (setting [6]), in series [3] (isolate KP (ST258C3)), in series [3] (isolate KP (ST258I2)), in series [3] (isolate KP (ST396)) and in series [3] (isolate KP (St258 C2)) was greater than 150 µM each time. Moreover, the MIC is 115.9 µM (≈ 63.3 µg/mL) in [4] (isolate PA (mucoid)) and greater than 150 µM in series [4] (isolate PA (non-mucoid)).

Consider `C[C@@H](O)[C@H]1C(=O)N2C(C(=O)O)=C(S[C@@H]3CN[C@H](C(=O)N(C)C)C3)[C@H](C)[C@H]12` [MEM, Meropenem], for which the MIC was greater than 150 µM in series [1]; greater than 150 µM in series [2]; greater than 150 µM in series [3] (isolate KP 2146 (NDM-1)); 0.2 µM (≈ 0.0767 µg/mL) in [3] (isolate KP (6)); 0.4 µM (≈ 0.153 µg/mL) in [3] (isolate KP (46)); 0.2 µM (≈ 0.0767 µg/mL) in series [3] (isolate KP (398)). In addition, the MIC in series [3] (isolate KP (CRE)) was 108.3 µM (≈ 41.5 µg/mL); in [3] (setting [6]) it was 0.2 µM (≈ 0.0767 µg/mL); in series [3] (isolate KP (ST258C3)), greater than 150 µM; in series [3] (isolate KP (ST258I2)) it was greater than 150 µM; in series [3] (isolate KP (ST396)) it was 0.3 µM (≈ 0.115 µg/mL); in series [3] (isolate KP (St258 C2)), greater than 150 µM. Also, the MIC stood at 13.3 µM (≈ 5.1 µg/mL) in series [4] (isolate PA (mucoid)) and 4 µM (≈ 1.53 µg/mL) in series [4] (isolate PA (non-mucoid)).

Take `CO/N=C(\C(=O)N[C@@H]1C(=O)N2C(C(=O)O)=C(CSc3nc(=O)c(O)nn3C)CS[C@H]12)c1csc(N)n1` [CRO, Ceftriaxone]: the MIC in [1] is greater than 150 µM; in series [2] it was greater than 150 µM; in series [3] (isolate KP 2146 (NDM-1)) it was greater than 150 µM; in series [3] (isolate KP (6)), greater than 150 µM; in [3] (isolate KP (46)), 1.9 µM (≈ 1.05 µg/mL); in series [3] (isolate KP (398)), 0.2 µM (≈ 0.111 µg/mL). The MIC is 45 µM (≈ 25 µg/mL) in series [3] (isolate KP (CRE)); 0.3 µM (≈ 0.166 µg/mL) in series [3] (setting [6]); greater than 150 µM in series [3] (isolate KP (ST258C3)); greater than 150 µM in series [3] (isolate KP (ST258I2)); 1.9 µM (≈ 1.05 µg/mL) in [3] (isolate KP (ST396)); greater than 150 µM in series [3] (isolate KP (St258 C2)). The MIC was determined as 137.2 µM (≈ 76.1 µg/mL) in series [4] (isolate PA (mucoid)) and 88.45 µM (≈ 49.1 µg/mL) in series [4] (isolate PA (non-mucoid)).

As for `CC1(C)S[C@@H]2[C@H](NC(=O)[C@H](N)c3ccccc3)C(=O)N2[C@H]1C(=O)O` [AMP, Ampicillin], the MIC in series [1], in [2], in series [4] (isolate PA (mucoid)) and in [4] (isolate PA (non-mucoid)) was greater than 150 µM each time.

For `CC(C)C[C@@H](NC(=O)[C@@H](CCC(N)=O)NC(=O)[C@@H](CCCNC(=N)N)NC(=O)[C@@H](CCCNC(=N)N)NC(=O)[C@@H](C)NC(=O)[C@@H](Cc1c[nH]c2ccccc12)NC(=O)[C@@H](CCCNC(=N)N)NC(=O)[C@H](N)CCCNC(=N)N)C(=O)N[C@H](C)C(=O)N[C@H](Cc1ccccc1)C(=O)N[C@H](C)C(=O)N[C@H](Cc1ccccc1)C(=O)N[C@H](CCCNC(=N)N)C(=O)N[C@H](CCCNC(=N)N)C(N)=O` [D-CONGA-Q7, rrwarrqlafafrr (All D)] (H-[dR][dR][dW][dA][dR][dR][dQ][dL][dA][dF][dA][dF][dR][dR]-NH2), in series [5], the “EC50 against WI-38 cells relative to that of D-CONGA” value is reported as “four times higher” and the “Toxicity against WI-38 cells (in words)” value is “lower cytotoxicity”. Also, the EC50 in series [5] (50% cytotoxicity by SYTOX Green, Table 2, read-out: EC50, μM (WI-38 Cells)) was 418 µM. The MIC in [3] (clinical isolates) stood at 1.8 µM (≈ 3.4 µg/mL). The “MIC in Broth Dilution, E. coli, RBC −” value in the series with E. coli (absence of RBC, Table 3) was 1 µM (≈ 1.89 µg/mL). Further, in the series on E. coli (no RBC, Table 2), the “MIC, E. coli, No RBC” value is 1 µM (≈ 1.89 µg/mL). The “MIC in Broth Dilution, E. coli, RBC +” value with E. coli (setting [7]) stood at 1.7 µM. Also, the “MIC, E. coli, 10^9 cells/ml RBC” value against E. coli (setting [8]) was 1.7 μM. For the same molecule, the “MIC in Broth Dilution, S. Aureus, RBC −” value in the series with S. aureus (absence of RBC, Table 3) turned out to be 4.2 µM (≈ 7.93 µg/mL). The “MIC, S. aureus, No RBC” value in the series on S. aureus (no RBC, Table 2) worked out at 4.2 µM (≈ 7.93 µg/mL). Moreover, the “MIC in Broth Dilution, S. Aureus, RBC +” value in the series with S. aureus (setting [7]) was 3.6 µM. Moreover, in the series with S. aureus (setting [8]), the “MIC, S. aureus, 10^9 cells/ml RBC” value stood at 3.6 μM. The “MIC, K. pneumoniae, 10^9 cells/ml RBC” value with K. pneumoniae is 1.5 μM. In addition, the “Hemolysis at 100 μM” value in the series with human RBCs came out at 0.07.
